Assay results taken from patent US5182378A, “Sulfate derivatives of galactan extracted from Klebsiella” (Roussel Uclaf, priority 1989, dated 1993).

Tests used:
HIV virus (H9 cells) = assay: H9 test (reverse transcriptase on supernatant and immunofluorescence on cells); type: cell-based; conditions: D+11; for Reverse Transcriptase % inhibition / Reverse Transcriptase cpm/cm^3 × 10^4: H9 cells supernatant; for Immunofluorescence % fluorescent cells / Immunofluorescence % inhibition: H9 cells
Description: H9 cells were used which were treated with polybrene, washed, and taken up in 100 microliters of medium, with or without the studied product at different concentrations. After incubating for 2 hours at 37° C. 100 microliters of HIV virus at 1/10 were added and the mixture was kept for 1 hour at 37° C. and then washed. The cells were taken up in 1 ml of medium with or without the studied product, and distributed into 2 wells, 500 microliters per well and 2×10^5 cells by well. On D+4, 500 microliters of culture medium with or without the studied product were added. On D+8, half of the supernatant was replaced with new medium. On D+11, a quantitative analysis by reverse transcriptase was carried out on the supernatant and an immunofluorescent determination was carried out on the cells. The results are shown hereafter.

[1] = tested on: syncitia formation in co-culture of H 9 III cells (chronically infected) with SUP T1 cells; assay: Inhibition of syncitia (co-culture of H 9 III cells with SUP T1 cells); type: cell-based, HIV; conditions: for Percentage of inhibition (syncitia), H 9 III cells: H 9 III cells pre-incubated with product one night at 37° C. before co-culture; for Percentage of inhibition (syncitia), Sup Ti cells: Sup Ti cells pre-incubated with product one night at 37° C. before co-culture; for Percentage of inhibition (syncitia), Test no. 1 / Percentage of inhibition (syncitia), Test no. 2: co-culture with product without previous incubation
Description: The activity of the sulfate derivative of galactan extracted from Klebsiella was determined by measurement of the inhibition of syncitia [Gruters et al, Nature, Vol. 330, p. 74 to 77, (5 Nov. 1987)] and by determination of the protective activity exercised vis-a-vis certain cell cultures.
A co-culture of H 9 III cells (chronically infected 10^5 cells/ml) with SUP T1 cells (non-infected: 2×10^5 cells/ml) was carried out and there was syncitia formation which was counted with a microscope. Each type of cell was pre-incubated or non-preincubated with the studied product for one night at 37° C. If there was no pre-incubation, the studied product was added to cells at the moment the culture was carried out. When there was inhibition of Syncitia formation in the treated cells relative to the control cells, the studied product was protective. The results obtained are shown hereafter.

HIV virus (MT4 cells) = assay: MT4 / MTT test (inhibition of the infection of MT4 cells); type: cell-based; conditions: 7 days at 37° C., MTT reading
Description: technique: 100 microliter dilutions of the virus in series in a microtitration plate addition of 100 microliters of cellular suspension containing 5×10^4 MT4 cells culture 7 days at 37° C., 5% CO2 addition of MTT (tetrazolium salt viability coloring agent) incubation 4 hours at 37° C. halting the reaction by the addition of a hydrochloric acid solution in isopropane reading of the optical density (OD) at 540 nm (after dissolution of the crystals).
MT4 cells at 10^6 cells/ml were used and dilution to 1/2 took place with or without the studied product at different concentrations. 100 microliters of HIV virus at different dilutions and 100 microliters of pre-treated cell suspension were introduced onto a microtitration plate. Incubation took place at 37° C. for 7 days and the MTT was added and a reading was taken with a spectrophotometer. The percentage inhibition of the infection of MT4 cells was determined and the results are shown hereafter: […]

## Sulfate derivative of the qalactan extracted from Klebsiella [Example 1]
HIV virus (H9 cells); 1 micrograms/cm^3
  Reverse Transcriptase % inhibition: 76%
  Reverse Transcriptase cpm/cm^3 × 10^4: 6.42 cpm/cm^3 × 10^4
  Immunofluorescence % fluorescent cells: 3%
  Immunofluorescence % inhibition: 94%
HIV virus (H9 cells); 10 micrograms/cm^3
  Reverse Transcriptase % inhibition: 100%
  Reverse Transcriptase cpm/cm^3 × 10^4: 1.16 cpm/cm^3 × 10^4
  Immunofluorescence % fluorescent cells: 0%
  Immunofluorescence % inhibition: 100%
HIV virus (H9 cells); 100 micrograms/cm^3
  Reverse Transcriptase % inhibition: 100%
  Reverse Transcriptase cpm/cm^3 × 10^4: 1.12 cpm/cm^3 × 10^4
  Immunofluorescence % fluorescent cells: 0%
  Immunofluorescence % inhibition: 100%
[1]; 1 micrograms/cm^3
  Percentage of inhibition (syncitia), H 9 III cells: 17%
  Percentage of inhibition (syncitia), Sup Ti cells: 23%
  Percentage of inhibition (syncitia), Test no. 1: 0%
  Percentage of inhibition (syncitia), Test no. 2: 10%
[1]; 10 micrograms/cm^3
  Percentage of inhibition (syncitia), H 9 III cells: 23%
  Percentage of inhibition (syncitia), Sup Ti cells: 27%
  Percentage of inhibition (syncitia), Test no. 1: 42%
  Percentage of inhibition (syncitia), Test no. 2: 17%
[1]; 100 micrograms/cm^3
  Percentage of inhibition (syncitia), H 9 III cells: 100%
  Percentage of inhibition (syncitia), Sup Ti cells: 100%
  Percentage of inhibition (syncitia), Test no. 1: 100%
  Percentage of inhibition (syncitia), Test no. 2: 100%
HIV virus (MT4 cells); 1 micrograms/cm^3
  Percentage of inhibition of the infection of MT4 cells: 74%
HIV virus (MT4 cells); 10 micrograms/cm^3
  Percentage of inhibition of the infection of MT4 cells: 99%
HIV virus (MT4 cells); 100 micrograms/cm^3
  Percentage of inhibition of the infection of MT4 cells: 84%
